Data published in patent US10149881B2, “Method for treating inflammatory, allergic or asthma diseases, containing paprika extracts” (priority 2010, dated 2018).

Assays:
Type in all cases: in vivo, mice
[1] = tested on: immunoglobulin-E (IgE); test: Measurement of blood immunoglobulin E (IgE) level, OVA asthma mouse model; conditions: FIG. 13
Protocol: When asthma in mice is induced using OVA, the immunoglobulin-E (IgE) among the blood antibody levels of the mice increases in proportion to the severity of asthma. Based on this principle, the paprika extract obtained according to the method of Example 1 was named “sample SP526”, and the blood immunoglobulin-E (IgE) level of the mice was measured. Also, the level of immunoglobulin-E (IgE) was measured.

[2] = tested on: IgG1; test: Analysis of IgG1, OVA asthma mouse model; conditions: blood; FIG. 11, FIG. 14
Protocol: (§1) Meanwhile, immunoglobulin IgG2a is produced by activation of Th1 cells, and the activity of Th1 cells reduces the level of IgG1 which is increased by the activity of Th2 cells. Thus, IgG1 and IgG2a were analyzed.

[3] = tested on: IgG2a; test: Analysis of IgG2a, OVA asthma mouse model; conditions: FIG. 14
Protocol: as §1

[4] = tested on: infiltration of immune cells; test: Immune cell infiltration, comparison with luteolin in asthma model; conditions: FIG. 12
Protocol: In order to examine whether the asthma inhibitory effect of the paprika extract of the present invention is attributable to a combination of components or a specific component alone, the following test was carried out. Specifically, the immune cell infiltration of luteolin was examined.

For `O=c1cc(-c2ccc(O)c(O)c2)oc2cc(O)cc(O)c12` [luteolin], the “effect on blood immunoglobulin-E levels” value [1] was “did not reduce”, the “expression of IgG1” value [2] was “not inhibited” and the “IgG2a, index of the activation of Th1 cells” value [3] was “produced IgG2a”. The “infiltration of immune cells” value [4] was “inhibited the infiltration of immune cells”.
